Experimental findings from ChEMBL document CHEMBL1151537 (Bioorg Med Chem Lett, 1994) are described below.

For one test, the target named is Melatonin receptor (Gallus gallus, UniProt P49288+P51050+P49285). Kind of test: Binding affinity towards melatonin receptor using 2-[125I]iodomelatonin as radioligand in chick brain membranes. The class given is cell membranes, Membrane.
The species entered for test [1] is Xenopus laevis. The test can be described thus: Agonistic activity was determined in a pigment aggregation model using cultured melanophores isolated from the neural crest of Xenopus laevis embryos; agonist. The class given is functional. Particulars: frog; filed as agonist.
For test [2], the species on record is Xenopus laevis. Kind of test: Agonistic activity was determined in a pigment aggregation model using cultured melanophores isolated from the neural crest of Xenopus laevis embryos; Partial. The format is functional. To be noted: frog; filed as partial agonist.
The species named for test [3] is Xenopus laevis. Kind of test: Agonistic activity was determined in a pigment aggregation model using cultured melanophores isolated from the neural crest of Xenopus laevis embryos; partial. Particulars: frog; filed as partial agonist. The class given is functional.
The species entered for test [4] is Xenopus laevis. The test can be described thus: Concentration producing half maximal aggregation of pigment granules in the centre of the melanophore isolated from the neural crest of Xenopus laevis embryos was determined. The class given is functional, frog.
For test [5], the species on record is Xenopus laevis. The test can be described thus: Agonistic activity was determined in a pigment aggregation model using cultured melanophores isolated from the neural crest of Xenopus laevis embryoss; agonist. The class given is functional. To be noted: frog; filed as agonist.

Take `CC(=O)NCCc1c[nH]c2ccccc12`: at Melatonin receptor, the Ki – broadly, the dissociation constant of the complex between target and ligand, obtained from inhibition or displacement – was 701 nM.
Regarding `O=C(NCCc1c(Br)[nH]c2cc(Br)ccc12)C1CC1`, the Activity entry in the test listed under Xenopus laevis [1] was “Agonist”. On Melatonin receptor, this compound gave a Ki of 138 nM.
Regarding `O=C(NCCc1c[nH]c2ccccc12)C1CC1`, the Ki at Melatonin receptor was 2600 nM.
With `CCCC(=O)NCCc1c[nH]c2ccccc12`, in the test filed under Xenopus laevis [2], the Activity result was “Partial agonist”. Besides, at Melatonin receptor, the Ki was 98 nM.
On to `O=C(NCCc1c(-c2ccccc2)[nH]c2ccccc12)C(F)(F)F`, for which the Activity result in the test listed under Xenopus laevis [3] is “Partial agonist”.
`CCC(=O)NCCc1c[nH]c2ccccc12`: the Ki at Melatonin receptor came out at 398 nM.
Turning to `CCCC(=O)NCCc1c(Br)[nH]c2cc(Br)ccc12`, in the test listed under Xenopus laevis [3], the Activity result was “Partial agonist”. The compound also showed a Ki on Melatonin receptor of 2.3 nM.
`CCC(=O)NCCc1c(Br)[nH]c2cc(Br)ccc12`: the inhibition constant Ki at Melatonin receptor is reported as 27 nM.
Regarding `CC(=O)NCCc1c(Br)[nH]c2ccccc12`, the Activity result in the test filed under Xenopus laevis [1] is “Agonist”. This compound registered a Ki on Melatonin receptor of 138 nM.
Turning to `O=C(CBr)NCCc1c[nH]c2ccccc12`, the inhibition constant Ki on Melatonin receptor is 153 nM.
Consider `CCCC(=O)NCCc1c(-c2ccccc2)[nH]c2ccccc12`, for which the Activity entry in the test filed under Xenopus laevis [3] is “Partial agonist”.
In the case of `CCC(=O)NCCc1c(-c2ccccc2)[nH]c2ccccc12`, in the test filed under Xenopus laevis [4], a half-maximal response (EC50) required 50 nM. In addition, in the test filed under Xenopus laevis [1], the Activity entry is “Agonist”.
`COc1ccc2[nH]cc(CCNC(C)=O)c2c1`: the Activity entry in the test filed under Xenopus laevis [1] was “Agonist”.
With `O=C(CBr)NCCc1c(Br)[nH]c2ccccc12`, the Activity entry in the test listed under Xenopus laevis [1] is “Agonist”. Moreover, the Ki at Melatonin receptor is given as 14 nM.
In the case of `CC(=O)NCCc1c(Br)[nH]c2cc(Br)ccc12`, the Activity result in the test listed under Xenopus laevis [3] is “Partial agonist”. The same compound came in with an inhibition constant Ki on Melatonin receptor of 122 nM.
Turning to `O=C(NCCc1c[nH]c2ccccc12)C(F)(F)F`, the Activity entry in the test listed under Xenopus laevis [2] was “Partial agonist”. The Ki on Melatonin receptor is 377 nM.
As to `CC(=O)NCCc1c(-c2ccccc2)[nH]c2ccccc12`, in the test filed under Xenopus laevis [5], the Activity entry is “Agonist”. Further, in the test filed under Xenopus laevis [4], the EC50 (commonly the concentration needed to bring the measured effect to its halfway point) stood at 70 nM.
As for `O=C(NCCc1c(Br)[nH]c2cc(Br)ccc12)C(F)(F)F`, the Ki on Melatonin receptor was found to be 367 nM.
